Assay [1] has as its target EmCV Cap-dependent translation. As to the kind of experiment: In vitro translation assay, FF-EmCV-Ren construct, cap-dependent (FF luciferase). It counts as biochemical, rabbit reticulocyte lysates. From the text: (§1) The bicistronic dual-reporter constructs that contain the firefly luciferase (FF) sequence, followed by the (encephalomyocarditis virus) EmCV and Hepatitis C virus (HCV) IRES, respectively, and the Renilla reniformis (Ren) luciferase sequence, has been previously described (Bordeleau Me., et al. Functional characterization of IRESes by an inhibitor of the RNA helicase eIF4A. Nature chemical biology. 2006; 2:213-20). For measurement of translation from the FF-EmCV-Ren and FF-HCV-Ren constructs, rabbit reticulocyte lysates (RRL) (Life Technologies, Carlsbad, Calif., USA) and the Dual-Glo (Promega, Madison, Wis., USA) read-outs were chosen. Two μl rabbit reticulocyte lysates mixed with Translation Mix 20× (-Met) and Translation Mix 20× (-Leu) in a ratio of 1:1 were pre-incubated with test compounds in 1536-well plates for 1 h at room temperature. Then, translation was started by adding 0.1 μg RNA per well and incubated for 2 h at 30° C. After a short chill phase, 2.5 μl Dual-Glo reagent 1 was added to each well and incubated for 10 min before reading the FF luciferase activity with the ViewLux uHTS Microplate Imager (Perkin Elmer, Waltham, Mass., USA). Directly after, 2.5 μl Dual-Glo reagent 2 was dispensed to each well and incubated at room temperature for 10 min before reading the Ren luciferase activity on the ViewLux. To exclude the possibility that test compounds interfere with any of the luciferase activities, a counter assay was performed in which the compounds were added after the completion of the in vitro translation.

Assay [2] addresses EmCV Cap-independent translation. As to the kind of experiment: In vitro translation assay, FF-EmCV-Ren construct, cap-independent (Ren luciferase). It counts as biochemical, rabbit reticulocyte lysates.
Source text: as §1

The target of assay [3] is HCV cap-independent translation. As to the kind of experiment: In vitro translation assay, FF-HCV-Ren construct, cap-independent (Ren luciferase). Type of assay: biochemical, rabbit reticulocyte lysates.
Source text: as §1

The target of assay [4] is HCV cap-dependent translation. As to the kind of experiment: In vitro translation assay, FF-HCV-Ren construct, cap-dependent (FF luciferase). It counts as biochemical, rabbit reticulocyte lysates.
Source text: as §1

The subject of assay [5] is A375. As to the kind of experiment: 48 h Cytotoxicity A375. It counts as cell-based. The conditions noted are these: Homo sapiens, A-375.

Some results are limits rather than exact numbers.

On to `O=C(/C=C/c1ccncc1)c1c(-c2ccccc2)c2ccncc2[nH]c1=O` [Compound 23, 4-Phenyl-3-(3-pyridin-4-yl-acryloyl)-1H-[1,7]naphthyridin-2-one], for which the IC50 in assay [1] is > 20 µM; in assay [2], 10 to 20 µM; in assay [3], > 20 µM; in assay [4] it was > 20 µM; in assay [5], < 2 µM.
`O=C(/C=C/c1nc2ccccc2[nH]1)c1c(-c2ccccc2)c2cnccc2[nH]c1=O` [Compound 24, 3-(3-1H-Benzoimidazol-2-yl-acryloyl)-4-phenyl-1H-[1,6]naphthyridin-2-one]: the IC50 in assay [1] is 2 to 10 µM; in assay [2] it was 2 to 10 µM; in assay [3], 10 to 20 µM; in assay [4], 10 to 20 µM; in assay [5], < 2 µM.
Take `O=C(/C=C/c1nc2ccccc2[nH]1)c1c(-c2ccccc2)c2cccnc2[nH]c1=O` [Compound 25, 3-(3-1H-Benzoimidazol-2-yl-acryloyl)-4-phenyl-1H-[1,8]naphthyridin-2-one]: the 50% inhibitory concentration (IC50) in assay [1] is 10 to 20 µM; in assay [2], 10 to 20 µM; in assay [3], > 20 µM; in assay [4], 10 to 20 µM; in assay [5], 10 to 20 µM.
Regarding `O=C(/C=C/c1ccsc1)c1c(-c2ccccc2)c2cc(Cl)ccc2[nH]c1=O` [Compound 27, 6-Chloro-4-phenyl-3-(3-thiophen-3-yl-acryloyl)-1H-quinolin-2-one], the half-maximal inhibitory concentration (IC50) in assay [1], in assay [2], in assay [3], in assay [4] and in assay [5] was 2 to 10 µM in each case.
Consider `O=C(/C=C/c1ccncc1)c1c(-c2ccccc2)c2cc(Cl)ccc2[nH]c1=O` [Compound 28, 6-Chloro-4-phenyl-3-(3-pyridin-4-yl-acryloyl)-1H-quinolin-2-one], for which the IC50 in assay [1] was 2 to 10 µM; in assay [2] it was 2 to 10 µM; in assay [3], 2 to 10 µM; in assay [4] it was 2 to 10 µM; in assay [5], < 2 µM.
For `Cn1c(/C=C/C(=O)c2c(-c3ccccc3)c3cc(Cl)ccc3[nH]c2=O)cc2ccccc21` [Compound 29, 6-Chloro-3-[3-(1-methyl-1H-indol-2-yl)-acryloyl]-4-phenyl-1H-quinolin-2-one], the half-inhibitory concentration (IC50) in assay [1] was > 20 µM; in assay [2], > 20 µM; in assay [3], > 20 µM; in assay [4], 10 to 20 µM; in assay [5] it was < 2 µM.
With `Cn1ccc2cc(/C=C/C(=O)c3c(-c4ccccc4)c4cc(Cl)ccc4[nH]c3=O)ccc21` [Compound 30, 6-Chloro-3-[3-(1-methyl-1H-indol-5-yl)-acryloyl]-4-phenyl-1H-quinolin-2-one], the IC50 was > 20 µM in assay [1]; > 20 µM in assay [2]; > 20 µM in assay [3]; > 20 µM in assay [4]; 2 to 10 µM in assay [5].
Regarding `O=C(/C=C/c1ccccc1)c1c(-c2ccccc2)c2cc(Cl)ccc2[nH]c1=O` [Compound 31, 6-Chloro-4-phenyl-3-(3-phenyl-acryloyl)-1H-quinolin-2-one], the half-maximal inhibitory concentration (IC50) in assay [1], in assay [2], in assay [3], in assay [4] and in assay [5] was 2 to 10 µM throughout.
Turning to `O=C(/C=C/c1cccnc1)c1c(-c2ccccc2)c2cc(Cl)ccc2[nH]c1=O` [Compound 32, 6-Chloro-4-phenyl-3-(3-pyridin-3-yl-acryloyl)-1H-quinolin-2-one], the IC50 in assay [1] was 2 to 10 µM; in assay [2] it was 2 to 10 µM; in assay [3] it was 2 to 10 µM; in assay [4] it was 2 to 10 µM; in assay [5] it was < 2 µM.
With `O=C(/C=C/c1ccc(Cl)cc1)c1c(-c2ccccc2)c2cc(Cl)ccc2[nH]c1=O` [Compound 33, 6-Chloro-3-[3-(4-chloro-phenyl)-acryloyl]-4-phenyl-1H-quinolin-2-one], the IC50 in assay [1], in assay [2], in assay [3], in assay [4] and in assay [5] was 2 to 10 µM throughout.
`Cc1ccc(/C=C/C(=O)c2c(-c3ccccc3)c3cc(Cl)ccc3[nH]c2=O)cc1` [Compound 34, 6-Chloro-4-phenyl-3-(3-p-tolyl-acryloyl)-1H-quinolin-2-one]: the IC50 lay within 10 to 20 µM in assay [1]; 2 to 10 µM in assay [2]; 2 to 10 µM in assay [3]; 2 to 10 µM in assay [4]; 2 to 10 µM in assay [5].
`CN(C)c1ccc(/C=C/C(=O)c2c(-c3ccccc3)c3cc(Cl)ccc3[nH]c2=O)cc1` [Compound 35, 6-Chloro-3-[3-(4-dimethylamino-phenyl)-acryloyl]-4-phenyl-1H-quinolin-2-one]: the half-maximal inhibitory concentration (IC50) in assay [1], in assay [2], in assay [3], in assay [4] and in assay [5] was > 20 µM in each case.
Regarding `O=C(/C=C/c1cc2ccccc2s1)c1c(-c2ccccc2)c2cc(Cl)ccc2[nH]c1=O` [Compound 36, 3-(3-Benzo[b]thiophen-2-yl-acryloyl)-6-chloro-4-phenyl-1H-quinolin-2-one], the half-inhibitory concentration (IC50) in assay [1] was 2 to 10 µM; in assay [2] it was 10 to 20 µM; in assay [3] it was 2 to 10 µM; in assay [4], 2 to 10 µM; in assay [5] it was 2 to 10 µM.
Consider `O=C(/C=C/c1cncnc1)c1c(-c2ccccc2)c2cc(Cl)ccc2[nH]c1=O` [Compound 37, 6-Chloro-4-phenyl-3-(3-pyrimidin-5-yl-acryloyl)-1H-quinolin-2-one], for which the IC50 in assay [1], in assay [2], in assay [3], in assay [4] and in assay [5] was 2 to 10 µM in each case.
Turning to `O=C(/C=C/c1ccc(C(F)(F)F)cc1)c1c(-c2ccccc2)c2cc(Cl)ccc2[nH]c1=O` [Compound 39, 6-Chloro-4-phenyl-3-[3-(4-trifluoromethyl-phenyl)-acryloyl]-1H-quinolin-2-one], the half-maximal inhibitory concentration (IC50) in assay [1] fell in the range of 2 to 10 µM; in assay [2] it was 2 to 10 µM; in assay [3] it was 10 to 20 µM; in assay [4], 10 to 20 µM; in assay [5], 2 to 10 µM.
In the case of `O=C(/C=C/c1ccc(F)c(F)c1)c1c(-c2ccccc2)c2cc(Cl)ccc2[nH]c1=O` [Compound 40, 6-Chloro-3-[3-(3,4-difluoro-phenyl)-acryloyl]-4-phenyl-1H-quinolin-2-one], the 50% inhibitory concentration (IC50) in assay [1] was 2 to 10 µM; in assay [2] it was 2 to 10 µM; in assay [3], 2 to 10 µM; in assay [4] it was 2 to 10 µM; in assay [5] it was < 2 µM.
`O=C(/C=C/c1ccc(F)cc1F)c1c(-c2ccccc2)c2cc(Cl)ccc2[nH]c1=O` [Compound 41, 6-Chloro-3-[3-(2,4-difluoro-phenyl)-acryloyl]-4-phenyl-1H-quinolin-2-one]: the IC50 in assay [1] is 2 to 10 µM; in assay [2] it was 2 to 10 µM; in assay [3], 2 to 10 µM; in assay [4] it was 2 to 10 µM; in assay [5] it was < 2 µM.
Take `O=C(/C=C/c1c(F)cccc1F)c1c(-c2ccccc2)c2cc(Cl)ccc2[nH]c1=O` [Compound 42, 6-Chloro-3-[3-(2,6-difluoro-phenyl)-acryloyl]-4-phenyl-1H-quinolin-2-one]: the IC50 was 2 to 10 µM in assay [1]; 2 to 10 µM in assay [2]; 2 to 10 µM in assay [3]; 2 to 10 µM in assay [4]; < 2 µM in assay [5].
Turning to `COc1ccc(/C=C/C(=O)c2c(-c3ccccc3)c3cc(Cl)ccc3[nH]c2=O)c(F)c1` [Compound 43, 6-Chloro-3-[3-(2-fluoro-4-methoxy-phenyl)-acryloyl]-4-phenyl-1H-quinolin-2-one], the IC50 in assay [1] is > 20 µM; in assay [2], > 20 µM; in assay [3], 2 to 10 µM; in assay [4] it was 2 to 10 µM; in assay [5], < 2 µM.
`Cn1ccnc1/C=C/C(=O)c1c(-c2ccccc2)c2cc(Cl)ccc2[nH]c1=O` [Compound 45, 6-Chloro-3-[3-(1-methyl-1H-imidazol-2-yl)-acryloyl]-4-phenyl-1H-quinolin-2-one]: the IC50 in assay [1] lay in the range of 2 to 10 µM; in assay [2], 2 to 10 µM; in assay [3] it was 2 to 10 µM; in assay [4], 10 to 20 µM; in assay [5] it was 2 to 10 µM.
Turning to `O=C(/C=C/c1cc(Br)cs1)c1c(-c2ccccc2)c2cc(Cl)ccc2[nH]c1=O` [Compound 46, 3-[3-(4-Bromo-thiophen-2-yl)-acryloyl]-6-chloro-4-phenyl-1H-quinolin-2-one], the IC50 in assay [1], in assay [2], in assay [3], in assay [4] and in assay [5] was 2 to 10 µM in each case.
As to `O=C(/C=C/c1ccc(Br)cn1)c1c(-c2ccccc2)c2cc(Cl)ccc2[nH]c1=O` [Compound 47, 3-[3-(5-Bromo-pyridin-2-yl)-acryloyl]-6-chloro-4-phenyl-1H-quinolin-2-one], the IC50 in assay [1] is 2 to 10 µM; in assay [2], 2 to 10 µM; in assay [3], 2 to 10 µM; in assay [4], 2 to 10 µM; in assay [5], < 2 µM.

What is called IC50 is the point on the concentration scale where inhibition reaches its midpoint. Higher therefore signals weaker potency.

The values are drawn from patent US10577349B2 (Sanford Burnham Prebys Medical Discovery Institute, priority 2015, dated 2020).
